Reference: patent US20250049740A1, “COMPOUND AND USE THEREOF IN PREPARATION OF MEDICAMENT FOR TREATING ALZHEIMER'S DISEASE” (priority 2024, published 2025)

How the values were obtained:
Assay type in all cases: in vivo, mouse
[1] = system: IBA-1 and GFAP positive cells; assay: Brain neuroinflammation markers, 3×Tg mice injected with formula I; settings: 3×Tg mice injected with a composition containing formula I vs control group injected with normal saline
Source text: (§1) 3×Tg mice (AD mice) in Example 2 were directly injected with a composition containing formula I (treatment group).

Aβ and p-Tau181 [2] = assay: IHC of AD-related biochemical markers in brain tissue (hippocampus), wild-type mice
Experimental: (§2) 6-week-old female wild-type mice C57BL/6J were divided into a control group injected with normal saline (Ctrl), a diseased group (injected with OLDA), and a treatment group (Formula I-OLDA). The administration was carried out by intraperitoneal injection, and the diseased group (OLDA, 0.5 mg/kg to 1.5 mg/kg), the control group (injected with normal saline, the volume of which was equal to that in the diseased group), and the treatment group (0.5 mg/kg to 1.5 mg/kg of OLDA, and 0.5 mg/kg to 1.5 mg/kg of formula I, prepared into a mixed solution for administration) were all administered once a day by injection for 8 consecutive weeks. After administration, the learning and memory ability of the mice in each group was evaluated by Y maze and Morris water maze tests.
(§3) According to the standard operating procedure of mouse brain anatomy, the mice in the control group, diseased group and treatment group in Example 3 were sacrificed, and their brain tissues and colon tissues were collected respectively and cryopreserved at −80° C.
(§4) The brain tissues of the mice in the diseased group and control group in Example 4 were examined by IHC technology for AD-related biochemical markers, and examined by IHC technology for the related markers of brain neuroinflammation.
The brain tissues of the mice in the treatment group in Example 4 were examined by IHC technology for AD-related biochemical markers and compared with the diseased group.

colon tissue [3] = assay: Colon tissue histopathology, 3×Tg mice injected with formula I; settings: 3×Tg mice injected with a composition containing formula I vs control group injected with normal saline
Source text: as §1

3×Tg mice (AD mice) [4] = assay: Morris water maze test, 3×Tg mice (AD mice) injected with formula I; settings: 3×Tg mice injected with a composition containing formula I vs control group injected with normal saline
Source text: as §1

wild-type mice C57BL/6J [5] = assay: Morris water maze test, wild-type mice given OLDA / OLDA plus formula I; settings: for number of times of crossing the original platform location: platform removed
Experimental: as §2

wild-type mice C57BL/6J [6] = assay: Y maze test, wild-type mice given OLDA / OLDA plus formula I
Experimental: as §2

Aβ and p-Tau181 [7] = assay: AD markers in hippocampus, 3×Tg mice injected with formula I; settings: 3×Tg mice injected with a composition containing formula I vs control group injected with normal saline
Source text: as §1

[8] = system: IBA-1 and GFAP positive cells; assay: IHC of brain neuroinflammation markers, wild-type mice
Experimental: as §2, §3, §4
The brain tissues of the mice in the treatment group in Example 4 were examined by IHC technology for the related markers of brain neuroinflammation and compared with the diseased group.

3×Tg mice (AD mice) [9] = assay: Y maze test, 3×Tg mice (AD mice) injected with formula I; settings: 3×Tg mice injected with a composition containing formula I vs control group injected with normal saline
Source text: as §1

colon tissue [10] = assay: HE staining of colon tissue (colonic epithelium histopathology), wild-type mice
Experimental: as §2, with “tests. According to the standard operating procedure of mouse brain anatomy, the mice in the control group, diseased group and treatment group in Example 3 were sacrificed, and their brain tissues and colon tissues were collected respectively and cryopreserved at −80° C. The colon tissues in the diseased group and control group in Example 4 were examined by HE staining technology for colonic epithelium histopathology. The colon tissues of the mice in the treatment group in Example 4 were examined by HE staining technology for colonic epithelium histopathology and compared with the diseased group.” for “tests.”

[11] = treatment group (OLDA and formula I) vs diseased group (OLDA)
[12] = treatment group (OLDA and formula I, each 0.5 mg/kg to 1.5 mg/kg, mixed solution, intraperitoneal once a day, 8 weeks) vs diseased group (OLDA)
[13] = OLDA diseased group vs control group
[14] = OLDA 0.5 mg/kg to 1.5 mg/kg intraperitoneal once a day for 8 weeks, diseased group vs control group (normal saline)

COc1cccc(NC(=O)/C=C/c2ccc(Cl)cc2)c1 [formula I]
number of GFAP positive cells [1]: decreased
number of IBA-1 positive cells [1]: decreased
area of Aβ in the hippocampus (Aβ and p-Tau181 [2]; [11]): significantly decreased
area of p-Tau181 in the hippocampus (Aβ and p-Tau181 [2]; [11]): significantly decreased
inflammatory cells in the colon tissue (colon tissue [3]): infiltrated into muscularis mucosae
number of crypts (colon tissue [3]): increased
time it took to find the platform (escape latency) (3×Tg mice (AD mice) [4]): significantly reduced
number of times of crossing the original platform location (3×Tg mice (AD mice) [4]; platform removed): significantly reduced
number of times of crossing the original platform location (wild-type mice C57BL/6J [5]; [11]): significantly increased
time it took to find the platform (escape latency) (wild-type mice C57BL/6J [5]; [12]): significantly reduced
spontaneous alternation rate (wild-type mice C57BL/6J [6]; [12]): significantly increased
total number of arm entries (wild-type mice C57BL/6J [6]; [12]): significantly increased
area of Aβ in the hippocampus (Aβ and p-Tau181 [7]): decreased
area of p-Tau181 in the hippocampus (Aβ and p-Tau181 [7]): decreased
number of GFAP positive cells [8, 11]: decreased
number of IBA-1 positive cells [8, 11]: decreased
spontaneous alternation rate (3×Tg mice (AD mice) [9]): significantly increased
total number of arm entries (3×Tg mice (AD mice) [9]): significantly increased
inflammatory cells in the colon tissue (colon tissue [10]; [11]): infiltrated into muscularis mucosae
number of crypts (colon tissue [10]; [11]): increased

CCCCCCCC/C=C\CCCCCCCC(=O)NCCc1ccc(O)c(O)c1 [OLDA, N-oleoyl-dopamine, reference compound]
area of Aβ in the hippocampus (Aβ and p-Tau181 [2]; [13]): significantly increased
area of p-Tau181 in the hippocampus (Aβ and p-Tau181 [2]; [13]): significantly increased
time it took to find the platform (escape latency) (wild-type mice C57BL/6J [5]; [14]): significantly prolonged
number of times of crossing the original platform location (wild-type mice C57BL/6J [5]; OLDA 0.5 mg/kg to 1.5 mg/kg intraperitoneal once a day for 8 weeks, diseased group vs control group): significantly reduced
spontaneous alternation rate (wild-type mice C57BL/6J [6]; [14]): significantly reduced
total number of arm entries (wild-type mice C57BL/6J [6]; [14]): significantly reduced
number of GFAP positive cells [8, 13]: increased
number of IBA-1 positive cells [8, 13]: increased
inflammatory cells in the colon tissue (colon tissue [10]; [13]): infiltrated into muscularis mucosa
number of crypts (colon tissue [10]; [13]): decreased
